In US20240189408A1, “COMPOSITIONS AND METHODS FOR REDUCING METHANE EMISSIONS IN RUMINANT POPULATIONS” (Arkea Bio Corp., priority 2022, published 2024):
Where two headings read alike, the source gives them in different places.

Assays:
rumen methanogens = details: cited from earlier work
[1] = system: methane production in ruminants; details: cited from earlier work
[2] = 3-NOP to adsorbent ratio study; assay type: physicochemical; details: 24 hr, HPLC
Description: Optimal loading of 3-NOP onto adsorbents was determined by varying ratios of 3-NOP to adsorbent. 3-NOP and adsorbent were speed mixed at 2000 rpm for 1 min at the following ratios by weight: 1:1.5, 1:2, 1:2.5. The adsorbed 3-NOP powder mixture was then placed in distilled water at 1% 3-NOP loading. The solution was allowed to equilibrate for 24 hr and then an aliquot was taken for HPLC to determine the reduction in 3-NOP concentration.

[3] = LNP encapsulation efficiency, RiboGreen assay; assay type: physicochemical; details: mRNA LNPs of Table 18
Description: (§1) To prepare lipid nanoparticles (LNPs), the mRNA stocks were thawed on ice. Nucleic acid concentrations were validated by absorbance at 260 nm using a NanoDrop. The mRNAs were then diluted to a final concentration of 0.35 mg/mL mRNA in Precision Nanosystem's dilution buffer. 10 mL of the dilute mRNAs were loaded into separate Luer lock syringes and all bubbles were removed by gentle tapping. A NanoAssemblr Ignite NxGen Cartridge was loaded into the cartridge slot of the Ignite instrument (FIG. 8A, 801) and one mRNA syringe was attached to the aqueous inlet of the cartridge. 3.3 mL of Genvoy-ILM reagent was loaded into a separate Luer lock syringes and all bubbles were removed by gentle tapping. The Genvoy-ILM syringe was then attached to the organic inlet of the cartridge. LNPs were then generated and collected into a 15 mL conical tube. The process was repeated for the remaining two mRNAs and for a buffer only LNP control (empty). Immediately after LNPs were generated, the samples were loaded into 10K dialysis cartridges, submerged into 1×DPBS (Ca^2+ and Mg^2+-free) to reduce the ethanol concentration to <0.5%. After dialysis the LNPs were recovered from the dialysis cartridges and sterile filtered at 0.2 um. Size and polydispersity (FIG. 8A, 802) were measured using a Malvern Panalytical DLS by diluting 40 uL of LNPs into 360 uL of 1×DPBS. […] Encapsulation efficiency was measured using a RiboGreen assay following Precision Nanosystems recommended protocol using a BioTek Synergy H1 Plate Reader. The resultant encapsulation efficiencies are shown in Table 14, with an average of ˜85%.
(§2) To prepare lipid nanoparticles (LNPs), the mRNA stocks were thawed on ice. Nucleic acid concentrations were validated by absorbance at 260 nm using a NanoDrop. The mRNAs were then diluted to a final concentration of 0.35 mg/mL mRNA in Precision Nanosystem's dilution buffer. 10 mL of the dilute mRNAs were loaded into separate Luer lock syringes and all bubbles were removed by gentle tapping. A NanoAssemblr Ignite NxGen Cartridge was loaded into the cartridge slot of the Ignite instrument and one mRNA syringe was attached to the aqueous inlet of the cartridge. 3.3 mL of Genvoy-ILM reagent was loaded into a separate Luer lock syringes and all bubbles were removed by gentle tapping. The Genvoy-LM syringe was then attached to the organic inlet of the cartridge. LNPs were then generated and collected into a 15 mL conical tube. The process was repeated for the remaining mRNAs and for a buffer only LNP control (empty). Immediately after LNPs were generated, the samples were loaded into 10K dialysis cartridges, submerged into Ix DPBS (Ca^2+ and Mg^2+-free) to reduce the ethanol concentration to <0.5%. After dialysis the LNPs were recovered from the dialysis cartridges and sterile filtered at 0.2 um. Size and polydispersity (FIG. 12 and FIG. 13) were measured using a Malvern Panalytical DLS by diluting 40 uL of LNPs into 360 uL of 1×DPBS. […] Encapsulation efficiency was measured using a RiboGreen assay following Precision Nanosystems recommended protocol using a BioTek Synergy H1 Plate Reader. The resultant encapsulation efficiencies are shown in Table 18, with an average of ˜60%.
(§3) To prepare lipid nanoparticles (LNPs), the mRNA stocks are thawed on ice. Nucleic acid concentrations are validated by absorbance at 260 nm using a NanoDrop. The mRNAs are then diluted to a final concentration of 0.35 mg/mL mRNA in Precision Nanosystem's dilution buffer. 10 mL of the dilute mRNAs are loaded into separate Luer lock syringes and all bubbles are removed by gentle tapping. A NanoAssemblr Ignite NxGen Cartridge is loaded into the cartridge slot of the Ignite instrument and one mRNA syringe is attached to the aqueous inlet of the cartridge. 3.3 mL of Genvoy-ILM reagent is loaded into a separate Luer lock syringes and all bubbles are removed by gentle tapping. The Genvoy-ILM syringe is then attached to the organic inlet of the cartridge. […]

[4] = LNP size and polydispersity by DLS (Malvern Panalytical); assay type: physicochemical; details: mRNA LNPs of Table 18; for PDI: LNP polydispersity; for Z-avg.: LNP size
Description: as §1, §2, §3

[5] = beef cattle, fed at […] of DM intake
[6] = 3-NOP:Adsorbent 1:1.5, distilled water at 1% 3-NOP loading
[7] = 3-NOP:Adsorbent 1:2, distilled water at 1% 3-NOP loading
[8] = 3-NOP:Adsorbent 1:2.5, distilled water at 1% 3-NOP loading

Molecule: CC(CO)[N+](=O)[O-] (stereo not drawn) [2-nitropropanol]
- lowering of CH4 production (rumen methanogens; steers): 37%
- Addition amount; maximum methane suppression amount ([1]; 10 mmol/L): 41.7% (NPOH)

Molecule: O=C(O)CC(O)C(=O)O (stereo not drawn) [Malate]
- decrease of CH4 production (rumen methanogens; [5]): 16%
- reduction of CH4 per unit of DM intake (rumen methanogens; [5]): 9%

Molecule: O=C(O)/C=C/c1ccc(O)c(O)c1 [Caffeic acid]
- Addition amount; maximum methane suppression amount ([1]; 12 mM): 12 mM, Caffeic acid; 37.58%;

Molecule: N=C(N)NCCC[C@H](N)C(=O)O [Arginine]
- Average Integrated Area of 3-NOP in solution [2, 6]: 2406.0
- Average Integrated Area of 3-NOP in solution [2, 7]: 2372.8
- Average Integrated Area of 3-NOP in solution [2, 8]: 2435.2

Molecule: ClC(Cl)Cl [chloroform]
- duration of substantial inhibition of methanogenesis (rumen methanogens; drenching to cattle): up to 32 days

Molecule: Oc1ccc(C=Cc2cc(O)cc(O)c2)cc1 [resveratrol]
- Addition amount; maximum methane suppression amount ([1]; 25 mg, high-concentrate diets): high-concentrate diets; 41%
- Addition amount; maximum methane suppression amount ([1]; 25 mg, high-forage diets): 25 mg, high-forage diets; 60%;

Molecule: N[C@@H](CCC(=O)O)C(=O)O [Glutamic acid]
- Average Integrated Area of 3-NOP in solution [2, 6]: 2445.9
- Average Integrated Area of 3-NOP in solution [2, 7]: 2452.5
- Average Integrated Area of 3-NOP in solution [2, 8]: 2446.3

Molecule: CC[C@@]1([C@@H]2O[C@@H]([C@H]3O[C@@](O)(CO)[C@H](C)C[C@@H]3C)C[C@@H]2C)CC[C@H]([C@]2(C)CC[C@]3(C[C@H](O)[C@@H](C)[C@@H]([C@@H](C)[C@@H](OC)[C@H](C)C(=O)O)O3)O2)O1 [monensin]
- CH4 production (rumen methanogens; tropical cattle, 60 mg/day/cow): did not lower CH4 production
- decrease of CH4 production (rumen methanogens; tropical cattle, 250 mg/day/cow, DM intake lowered): about 30%
- CH4 suppression ([1]; 10-15 ppm): no CH4 suppression was observed
- lowering of CH4 production (g/kg DM intake) ([1]; fed at 24-35 mg/kg diet): up to 10%

Molecule: O=[N+]([O-])O [Nitrate]
- Addition amount; maximum methane suppression amount ([1]; 5 mM (Liu et al., 2017)): 5 mM 43.26%
- Addition amount; maximum methane suppression amount ([1]; 5 mmol/L (Wu et al., 2019)): 5 mmol/L; 32.92%
- Addition amount; maximum methane suppression amount ([1]; 20 mg/g dry matter (Alvarez-Hess et al., 2019)): 20 mg/g dry matter; 21%

Molecule: O=C(O)/C=C/c1ccc(O)cc1 [p-coumaric acid]
- Addition amount; maximum methane suppression amount ([1]; 12 mM): p-coumaric acid; 28.33%

Molecule: O=[N+]([O-])CCO [2-nitroethanol]
- Addition amount; maximum methane suppression amount ([1]; 10 mmol/L): 96.7% (NEOH),

Molecule: ClCBr [BCM, bromochloromethane]
- toxicity or residues in meat (rumen methanogens; steers fed grain-based diets): no signs of toxicity or residues in meat

B1: ARK001: mRNA: SP + WP_004031278.1 (Methanobacterium formicicum) + TM/C; SEQ ID NO: 16676 (nucleic acid)
chain: ATGTTCGTGTTCCTCGTGCTCCTGCCCCTCGTCTCCAGCCAGTGCGTGTACCTCATGACACTGAGCCTGCCAGGGTTCGCACATCCCTTCGCACTCCCCCCCTGGTACATCTGGCTGGGCTTCATCGCAGGACTGATCGCCATCGTCATGGTCACCATAATGCTCTGTTGCATGACCTCCTGCTGTAGCTGCCTGAAAGGCTGTTGCAGCTGCGGGAGCTGCTGCAAATTCGACGAAGACGATAGCGAACCTGTGCTCAAAGGGGTGAAGTTGCATTACACATAGTGA
modifications: listed as DNA
- Encapsulation efficiency [3]: 51%
- PDI [4]: 0.086
- Z-avg. [4]: 78.82 nm·days

B2: ARK013: mRNA: SP + mru0143 + STOP; SEQ ID NO: 16687 (nucleic acid)
chain: ATGTTCGTGTTCCTCGTGCTCCTGCCCCTCGTCTCCAGCCAGTGCGTGTACCTCATGACACTCCCCCTGGACGGACTCGGGCACCCCTTCCCCCTGCCATGA
modifications: listed as DNA, chemistry not fully specified
- Encapsulation efficiency [3]: 60%
- PDI [4]: 0.1841
- Z-avg. [4]: 78.82 nm·days

B3: ARK012: mRNA: SP + WP_012956721.1 + STOP; SEQ ID NO: 16686 (nucleic acid)
chain: ATGTTCGTGTTCCTCGTGCTCCTGCCCCTCGTCTCCAGCCAGTGCGTGGGGTCCATAGGGGCTGCTTCTATGGAGTTCTGTTTTGATGTTTTCAAGGAACTGAAGGTTCACCATGCTAACGAGAACATCTTTTACTGTCCAATAGCCATCATGAGTGCGCTTGCTATGGTTTATTTGGGTGCAAAAGATTCTACTCGCACTCAGATTAATAAGGTCGTTAGATTCGACAAGCTTCCAGGGTTTGGAGACAGTATTGAGGCCCAATGTGGAACGTCAGTCAACGTCCATTCTTCTCTGCGGGACATTCTCAACCAAATAACGAAGCCAAACGACGTGTATTCCTTCTCACTCGCGTCACGGCTGTATGCTGAAGAAAGGTATCCTATCTTGCCAGAATATCTCCAGTGCGTCAAGGAGTTGTATCGAGGCGGACTGGAACCGATCAACTTTCAGACTGCAGCCGACCAGGCCCGCGAACTGATCAACAGCTGGGTCGAGTCTCAGACCAATGGGATCATACGCAATGTGTTGCAACCGAGTAGTGTCGACTCTCAGACGGCTATGGTCTTGGTGAACGCTATAGTCTTCAAAGGTCTGTGGGAGAAGACCTTCAAGGATGAAGACACACAAGCGATGCCATTCAGAGTCACCGAACAAGAAAGCAAACCCGTCCAAATGATGTACCAAATTGGGCTTTTTCGGGTGGCCTCTATGGCCTCTGAGAAAATGAAAATATTGGAACTGCCCTTCGCCAGCGGCACAATGAGTATGTTGGTCCTTCTTCCAGATGAAGTCTCAGGTCTCGAACAGCTTGAGTCTATCATTAACTTTGAGAAACTCACTGAATGGACTTCTTCCAATGTGATGGAAGAACGAAAAATCAAAGTCTACCTGCCCCGAATGAAGATGGAAGAGAAATATAATTTGACATCAGTTCTGATGGCCATGGGAATCACAGACGTGTTTTCATCCTCTGCGAATCTGTCTGGCATATCTTCCGCAGAATCTCTCAAGATCAGTCAAGCCGTCCACGCGGCCCATGCTGAGATAAATGAGGCGGGCAGAGAGGTGGTGGGGTCCGCCGAAGCTGGAGTCGACGCAGCTTCTGTCAGTGAAGAATTTAGGGCCGATCATCCTTTCCTGTTCTGCATAAAGCACATAGCTACGAACGCTGTGCTTTTCTTTGGCAGATGCGTTTCTCCACCCTGGTACATCTGGCTGGGCTTCATCGCAGGACTGATCGCCATCGTCATGGTCACCATAATGCTCTGTTGCATGACCTCCTGCTGTAGCTGCCTGAAAGGCTGTTGCAGCTGCGGGAGCTGCTGCAAATTCGACGAAGACGATAGCGAACCTGTGCTCAAAGGGGTGAAGTTGCATTACACATAGTGA
modifications: listed as DNA
- Encapsulation efficiency [3]: 49%
- PDI [4]: 0.100
- Z-avg. [4]: 78.82 nm·days

B4: ARK002: mRNA: SP + WP_012956721.1 (Methanobrevibacter ruminantium) + TM/C; SEQ ID NO: 16677 (nucleic acid)
chain: ATGTTCGTGTTCCTCGTGCTCCTGCCCCTCGTCTCCAGCCAGTGCGTGTACCTCATGACACTCCCCCTGGACGGACTCGGGCACCCCTTCCCCCTGCCACCCTGGTACATCTGGCTGGGCTTCATCGCAGGACTGATCGCCATCGTCATGGTCACCATAATGCTCTGTTGCATGACCTCCTGCTGTAGCTGCCTGAAAGGCTGTTGCAGCTGCGGGAGCTGCTGCAAATTCGACGAAGACGATAGCGAACCTGTGCTCAAAGGGGTGAAGTTGCATTACACATAGTGA
modifications: listed as DNA
- Encapsulation efficiency [3]: 51%
- PDI [4]: 0.108
- Z-avg. [4]: 78.82 nm·days
